# Data: US20230218663A1, “COMPOSITIONS AND METHODS FOR TREATING A SARS-COV-2 INFECTION” (priority 2020, published 2023)
# Like-named read-outs stand apart in the source and are kept apart here.
# Key:
# VeroE6 cells = experiment: Cell viability assay (CellTiterGlo), VeroE6; type: cell-based, African green monkey
# Description: (§1) The CellTiterGlo® luminescent assay (Promega Corporation, Madison, Wis., USA) was performed to detect the cytotoxicity of the selected compounds as previously described^39. Briefly, VeroE6 cells (4×10^4 cells per well) and Caco2 cells (4×10^4 cells per well) were incubated with different concentrations of the individual compound in 96-well plates for 48 hrs, followed by the addition of the substrate and measurement of luminance 10 min later. Ridaura and Au(PEt3)Cl were dissolved in DMSO, and the final percentage of DMSO was kept at 1% in culture medium.
# SARS-CoV-2 PL^pro [1] = biological target: T1, SARS-CoV-2 PL^pro (Severe acute respiratory syndrome coronavirus 2, UniProt P0DTD1); experiment: Zinc release assay (FluoZin-3); type: binding
# Description: The release of Zn^2+ from SARS-CoV-2 PL^pro upon bismuth drug exposure was perform by a previously described method with zinc-specific fluorophore FluoZin™-3 (Invitrogen/Life Technologies) (21). Briefly, SARS-CoV-2 PLpro (20 μM) was incubated with 0, 2, 5, 20 mol eq. Bi^3+ (as CBS), for 180 min at room temperature, followed by the addition of FluoZin-3 (1 μM) in a total reaction volume of 100 μL (50 mM Tris-HCl, pH7.4) at room temperature. Fluorescence (λex=494 nm, λem=530 nm) was detected and converted into Zn^2+ concentrations using standard curves prepared from […] under identical condition. The signals of CBS at corresponding concentrations after mixing with FluoZin™-3 were recorded for background subtraction. The assay was performed in triplicate and the results were plotted as the [Zn^2+]/[PL^pro] verse [Bi^3+]/[PL^pro].
# SARS-CoV-2 M^pro [2] = biological target: T2, SARS-CoV-2 M^pro (Severe acute respiratory syndrome coronavirus 2, UniProt P0DTD1); experiment: Ellman's assay of free cysteine; type: binding
# Description: Amount of free cysteine was assayed spectrophotometrically with DTNB [5,5′-dithiobis-(2-nitrobenzoic acid)]according to a previously described method^(22). Briefly, SARS-CoV-2 M^pro (15 μM) was incubated with 0, 2, 5, 20 mol eq. […] Equal volume of DTNB (2 mM) was added to the reaction mix in a total reaction volume of 100 μL. After the incubation for 90 min, absorption of 412 nm which indicated the release of 5-thiobenzoate anion, was detected and converted into thiol concentrations using standard curves prepared with reduced glutathione (GSH) under identical condition. The assay was performed in triplicate and the results were plotted as the [free cysteine]/[M^pro] verse [Bi^3+]/[M^pro].
# SARS-CoV-2 M^pro [3] = biological target: T2, SARS-CoV-2 M^pro; experiment: Bi^3+ binding to M^pro (UV-vis kinetics and titration)
# SARS-CoV-2 PL^pro [4] = biological target: T1, SARS-CoV-2 PL^pro; experiment: Bi^3+ binding to PL^pro (UV-vis kinetics and titration)
# [5] = Chemical stability of bismuth drugs at different pH; details: data not shown; for effect of the thiol-containing drug on hydrolysis of CBS: acidic conditions
# SARS-CoV-2 [6] = experiment: Viral load reduction assay in VeroE6 cells; type: cell-based
# Description: Viral load reduction assay was performed on VeroE6 and Caco2 cells, as described previously with modifications^41. Supernatant samples from the infected cells (0.1 MOI) were harvested at 48 hours post-infection (hpi) for qRT-PCR analysis of virus replication. Briefly, 100 μL of viral supernatant were lyzed with 400 μL of AVL buffer and then extracted for total RNA with the QIAamp viral RNA mini kit (Qiagen, Hilden, Germany). Real-time one-step qRT-PCR was used for quantitation of SARS-CoV-2 viral load using the QuantiNova Probe RT-PCR kit (Qiagen) with a LightCycler 480 Real-Time PCR System (Roche) as previously described^15. Each […] mixture contained 10 μL of 2×QuantiNova Probe RT-PCR Master Mix, 1.2 μL of RNase-free water, 0.2 μL of QuantiNova Probe RT-Mix, 1.6 μL each of 10 μM forward and reverse primer, 0.4 μL of 10 μM probe, and 5 μL of extracted RNA as the template. Reactions were incubated at 45° C. for 10 min for reverse transcription, 95° C. for 5 min for denaturation, followed by 45 cycles of 95° C. for 5 s and 55° C. for 30 s. Signal detection and measurement were taken in each cycle after the annealing step. The cycling profile ended with a cooling step at 40° C. for 30 s. The primers and probe sequences are against the RNA-dependent RNA polymerase/Helicase (RdRP/Hel) gene region of SARS-Cov-2 previously described^42.
# Cell culture supernatants were collected at 48 hour-post-infection (hpi) for viral RNA extraction and quantitative reverse transcription-polymerase chain reaction (qRT-PCR) as previously described with modifications(13, 14). The primers and probe sequences were against the RNA-dependent RNA polymerase/Helicase (RdRP/Hel) gene region of SARS-CoV-2: forward primer: 5′-[…]-3′ (SEQ ID NO:6); reverse primer: 5′-[…]-3′(SEQ ID NO:7); specific probe: 5′-[…]-IABkFQ-3′(SEQ ID NO:8). The viral load reduction assay experiments were performed in triplicate and repeated twice for confirmation.
# SARS-CoV-2 PL^pro [7] = biological target: T1, SARS-CoV-2 PL^pro; experiment: PL^pro activity inhibition assay (FRET); type: biochemical
# SARS-CoV-2 M^pro [8] = biological target: T2, SARS-CoV-2 M^pro; experiment: biochemical; type: biochemical
# SARS-CoV-2 [9] = type: cell-based; details: 24 h, 1000 µM
# SARS-CoV-2 [10] = experiment: Golden Syrian hamster model, oral treatment (NAC studies); type: in vivo
# Caco2 cells = experiment: Cell viability assay (CellTiterGlo), Caco2; type: cell-based, human; details: Caco-2
# Description: as §1
# SARS-CoV-2 [11] = type: cell-based; details: read-out: EC50 VeroE6
# SARS-CoV-2 [12] = type: cell-based
# SARS-CoV-2 [13] = details: 0.1 MOI, 48 hpi, non-toxic concentrations
# pseudo-SARS-CoV-2-Luc = type: cell-based
# [14] = 48 hrs incubation, concentration based on metal content, read-out: CC50 VeroE6
# [15] = 0.1 MOI, 48 hpi, non-toxic concentrations
compound,measurement,setting,value
"CCP(CC)CC.[Au+].[Cl-] [Au(PEt3)Cl, chloro(triethylphosphine)gold(I)]",CC50,VeroE6 cells; [14],13.5 ± 1.8 µM
[Bi+3] [Bi^3+],Zn^2+ released from PL^pro,SARS-CoV-2 PL^pro [1],~0.78 eq.
same,decrease of free cysteine in M^pro,SARS-CoV-2 M^pro [2],~1 eq.
same,molar ratio [Bi3+]/[SARS-CoV-2 Mpro] at plateau,SARS-CoV-2 M^pro [3]; absorption at 340 nm,~1
same,Kd,"SARS-CoV-2 M^pro [3]; read-out: estimated dissociation constant (Kd), M^pro",0.6 µM
same,molar ratio [Bi3+]/[SARS-CoV-2 PL^pro] at plateau,SARS-CoV-2 PL^pro [4]; absorption at 340 nm,~3
same,Kd,"SARS-CoV-2 PL^pro [4]; read-out: estimated dissociation constant (Kd), PL^pro",1.13 µM
"C[C@H](CS)C(=O)N1CCC[C@H]1C(=O)O [CPL, captopril]",effect of the thiol-containing drug on hydrolysis of CBS,[5],prevent hydrolysis of CBS
"N[C@@H](CCC(=O)N[C@@H](CS)C(=O)NCC(=O)O)C(=O)O [GSH, glutathione]",effect of the thiol-containing drug on hydrolysis of CBS,[5],prevent hydrolysis of CBS
"CC(=O)N[C@@H](CS)C(=O)O [NAC, N-acetyl cysteine]",anti-SARS-CoV-2 activity in Vero E6 culture supernatant,SARS-CoV-2 [6]; up to 2000 μM,negligible anti-SARS-CoV-2 activity
same,IC50,SARS-CoV-2 PL^pro [7],> 150 µM
same,inhibition of PL^pro at comparable concentrations,SARS-CoV-2 PL^pro [7],negligible inhibitory
same,IC50,SARS-CoV-2 M^pro [8],> 450 µM
same,inhibition of M^pro at comparable concentrations,SARS-CoV-2 M^pro [8],negligible inhibitory
same,viral NP antigen-positive cells,SARS-CoV-2 [9],59.75%
same,lung pathology,SARS-CoV-2 [10]; H&E,partially relieved lung pathology
same,pulmonary viral load compared with vehicle group,"SARS-CoV-2 [10]; oral CBS 300 mg/kg or NAC 370 mg/kg, 2 dpi",No statistically significant difference
"CC(C)(S)[C@@H](N)C(=O)O [PCM, penicillamine]",effect of the thiol-containing drug on hydrolysis of CBS,[5],prevent hydrolysis of CBS
"CC[PH](CC)(CC)[Au][S][C@@H]1O[C@H](COC(C)=O)[C@@H](OC(C)=O)[C@H](OC(C)=O)[C@H]1OC(C)=O [Ridaura, Auranofin]",CC50,VeroE6 cells; [14],14.2 ± 1.3 µM
"O=C(O)c1ccccc1S [TSA, thiosalicylic acid]",effect of the thiol-containing drug on hydrolysis of CBS,[5],prevent hydrolysis of CBS
Bi(TPP) (TPP: tetraphenylporphyrinate),CC50,VeroE6 cells,> 400 µM
same,CC50,Caco2 cells,> 400 µM
same,EC50,"SARS-CoV-2 [11]; SARS-CoV-2 plaque reduction, concentration based on metal content",3.9 ± 1.2 µM
same,maximal viral load reduction in VeroE6 cell culture supernatant,SARS-CoV-2 [6]; [15],~3 logs
same,maximal viral load reduction in the VeroE6 cell lysate,SARS-CoV-2 [6]; [15],~1 logs
same,"effect on virus replication, drug maintained after virus entry (post-entry)","SARS-CoV-2 [12]; MOI=2, viral titer at 9 hpi",functioned at post-entry stages
same,maximal viral load reduction in Caco2 cell culture supernatant,SARS-CoV-2 [13],~3 logs
same,maximal viral load reduction in the Caco2 cell lysate,SARS-CoV-2 [13],~2 logs
Bi(TPyP) (TPyP: tetra(4-pyridyl)porphyrin),EC50,SARS-CoV-2 [11],7.5 µM
same,maximal viral load reduction in VeroE6 cell culture supernatant,SARS-CoV-2 [6],~3 logs
same,maximal viral load reduction in the VeroE6 cell lysate,SARS-CoV-2 [6],~1 logs
same,"effect on virus replication, drug added during pre-incubation (cells pre-treatment)",SARS-CoV-2 [12],significantly suppressed virus replication
same,"effect on virus replication, drug added during virus co-infection",SARS-CoV-2 [12],significantly suppressed virus replication
same,"effect on virus replication, drug maintained after virus entry (post-entry)",SARS-CoV-2 [12],no detectable effect
same,percent virus entry lowered,pseudo-SARS-CoV-2-Luc,~53%
bismuth subgallate [BSG],stabilisation of the bismuth drug by NAC,[5]; low pH,stabilized
